Laboratory results as given in patent publication US5744462A, “Steroids useful as anti-cancer and anti-obesity agents” (Research Corporation Technologies, Inc., priority 1995, dated 1998).
“Also recorded” adds a separate entry of the source.

What was measured:
[1] = test system: liver catalase; test: Liver catalase activity after three weeks of diet treatment; type: in vivo, mouse (female Balb/c)
Procedure: (§1) Female Balb/c mice were housed in polycarbonate cages (6/mice/cage) in animal quarters maintained at 24°±1° C. with 12 hours of light and 12 hours of dark each day. The mice were placed on a diet containing either DHEA, 8354, A, B clofibrate or with no addition. Three weeks later the mice were killed, the livers were perfused with cold saline, weighed, and 5% liver homogenates were prepared for the determination of catalase activity by the spectrophotometric method of Luck (H. Luck, in Method in Enzyme Analysis, H. U. Bergmeyer, Ed. (Verlag Chemie, Weinheim/Bergstrasse, Germany, 1965)). Total protein was measured by the method of Lowry, et al. (O. H. Lowry, N. J. Rosebrough, A. L. Farr, R. J. Randall, J. Biol. Chem., 193, 265 (1951)).

[2] = without suppressing appetite; cited from earlier work
[3] = in vivo; cited from earlier work
[4] = Body weight and food consumption in the DMBA binding experiment; type: in vivo, mouse; details: two weeks of feeding
Procedure: Binding of [^3 H]DMBA to mouse skin DNA was determined as described in Pashko, L. L., and Schwartz, A. G. (1983), Effect of food restriction, dehydroepiandrosterone, or obesity on the binding of ^3 H-7,12-dimethylbenz(a)anthracene to mouse skin DNA, J. Gerontol., 38, 8-12. Values are mean±SD for 3 individual determinations, with pooled tissue from 2 mice used for each determination. DHEA or testosterone (400 ug in 0.2 ml acetone) was applied to the skin one hour before [^3 H]DMBA. The mean weight of the food restricted mice was 18.5±1.0 gm, n=6, of the ad libitum fed, 27.4±1.0 gm, n=6, of the ad libitum fed treated with DHEA, 28.2±0.9 gm, n=6, and of the ad libitum fed treated with testosterone, 28.3±0.9 gm, n=6, following two weeks of feeding. The average food consumed was, in gm/mouse/day, 2.2, 3.8, 3.8 and 4.0 for the food restricted, ad libitum fed, ad libitum fed plus DHEA, and ad libitum fed plus testosterone groups, respectively.

[5] = mouse, in vivo; cited from earlier work
[6] = test system: HeLa cell strain, TCRC-2; details: cited from earlier work
[7] = Anti-obesity action, body weight, male A/J mice; type: in vivo, mouse (male A/J); details: 0.45% in diet
Procedure: Male A/J (5 weeks old) mice were obtained from the
Jackson Laboratory and were housed in polycarbonate cages (6
mice/cage) in animal quarters maintained at 24 ± 1° C. with 12
hours of light and 12 hours of darkness each day. One week
after arrival, the mice were placed on a diet containing
either DHEA, 8353, or without steroid. Animals were weighed

[8] = test system: mammalian glucose-6-phosphate dehydrogenase (G6PDH); details: cited from earlier work
[9] = test system: mouse skin DNA; test: (3H) DMBA binding to skin DNA; type: in vivo, mouse (A/J); details: for effect on 3H-DMBA binding to skin DNA: mice
[10] = cited from earlier work
[11] = C3H mice, cited from earlier work
[12] = mouse, in vivo; cited from earlier work; remark: listed apart in the source
[13] = test system: mouse epidermis; details: cited from earlier work
[14] = test system: cultured rat kidney epithelial cell line; details: cited from earlier work
[15] = oral; cited from earlier work
[16] = Liver weight after three weeks of diet treatment; type: in vivo, mouse (female Balb/c); details: 0.25% of diet
Procedure: as §1

[17] = test system: mouse epidermal DNA (TPA stimulated 3H-thymidine incorporation); test: TPA stimulation of 3H-thymidine incorporation in epidermis, topical steroid; type: in vivo, mouse (A/J); details: for SPECIFIC ACTIVITY, TPA stimulated 3H-thymidine incorporation: no steroid 66, TPA alone 174
Procedure: Tumor promoters, such as TPA, stimulate hyperplasia and DNA synthesis when applied to the skin, and it is believed that this stimulation is an important step in the enhancement of tumorigenesis.
Incorporation of ^3 H-thymidine into A/J mouse epidermal DNA was determined as described in Pashko, L. L., Schwartz, A. G., Abou-Gharbia, M. and Swern, D. (1981), Inhibition of DNA synthesis in mouse epidermis and breast epithelium by dehydroepiandrosterone and related steroids, Carcinogenesis, 2, 717-721. Values are mean±SD for 3 separately treated mice in each group 20 hours after TPA application. DHEA or testosterone was added topically in 0.2 ml acetone one hour before TPA addition.

[18] = test system: human lymphocytes (Epstein-Barr virus-induced transformation); details: cited from earlier work
[19] = Estrogenic and anti-estrogenic activity, uterine weight; type: in vivo, rat (female CD); details: 60 mg/kg s.c. for 3 days, DHEA significantly greater than control
Procedure: Estrogenic and Anti-Estrogenic Activity
Female CD rats, 26-27 days old, were injected subcutaneously for 3 days with one of the compounds of the present invention at 60 mg/kg in propylene glycol. Controls received propylene glycol alone. On the 4th day, the rats were killed and the uteri were dissected out and weighed.

In the case of C[C@]12CC[C@H](O)CC1=CC[C@@H]1[C@@H]2CC[C@]2(C)C(=O)CC[C@@H]12 [DHEA, Dehydroepiandrosterone], the “CATALASE ACTIVITY” value ([1]; 0.25% of diet, control 31.1 ± 6.7, DHEA p < 0.05, clofibrate p < 0.001 vs control) was 97.8 ± 24 Units per mg protein, the “increase in liver catalase specific activity” value ([1]; 0.25%, vs control) was “threefold” and the “catalase activity, in words” value ([1]; mice, 0.25% of diet) was “stimulated catalase activity”. The “effect on obesity on long-term administration” value [2] was “prevented the development of obesity without suppressing appetite”, the “estrogenic effect after prolonged administration” value [3] was “evidence of an estrogenic effect after prolonged administration” and the mean body weight ([4]; topical 400 ug, ad libitum fed 27.4±1.0) was 28.2±0.9 gm. The average food consumed ([4]; ad libitum fed 3.8) was 3.8 gm/mouse/day, the anti-hypercholesterolemic effect [5] was “anti-hypercholesterolemic effect” and the “growth inhibition of HeLa TCRC-2” value [6] was “particularly sensitive to DHEA-induced growth inhibition”. For the same molecule, the “reversal of growth inhibition by deoxynucleosides” value ([6]; mixture of deoxynucleosides of adenine, guanine, cytosine, thymine in medium) was “can be almost completely overcome”, the “mean weekly weight ± S.D.” value ([7]; week 0, control 23 ± 1.5) was 23.0 ± 1.5 grams and the “mean weekly weight ± S.D.” value ([7]; week 1, control 25.0 ± 1.6) was 22.8 ± 1.5 grams. The “mean weekly weight ± S.D.” value ([7]; week 2, control 27.0 ± 1.6) was 19.0 ± 1.5 grams, the “mean weekly weight ± S.D.” value ([7]; week 3, control 27.3 ± 1.6) was 21.5 ± 1.1 grams and the “mean weekly weight ± S.D.” value ([7]; week 4, control 27.5 ± 1.9) was 21.4 ± 1.2 grams. The “inhibition of mammalian G6PDH” value [8] was “potent non-competitive inhibitor”, the “SPECIFIC ACTIVITY, (3H) DMBA binding to skin DNA” value ([9]; 400 ug topical one hour before DMBA, ad libitum fed 116 ± 5.2) was 66 ± 13 cpm/ug DNA and the “effect on 3H-DMBA binding to skin DNA” value ([9]; four weeks, 400 mg/kg) was “does inhibit ^3 H-DMBA binding to skin DNA”. The “effect on 3H-DMBA binding to skin DNA” value ([9]; oral, doses well below 400 mg/kg) was “inactive”, the “effect on 3H-DMBA binding to skin DNA” value ([9]; single administration, 400 mg/kg) was “does not inhibit ^3 H-DMBA binding to skin DNA” and the “effect on rate of binding of 3H-DMBA to skin DNA” value ([9]; topical, in words (Table 4)) was “inhibits the rate of binding”. For the same molecule, the “enzyme-positive premalignant foci in the liver” value ([10]; 0.6%, 20-22 weeks, after 4 injections of carcinogen) was “inhibited the formation of enzyme-positive premalignant foci in the liver”, the “liver basophilic lesions, enzyme-negative” value ([10]; after carcinogen) was “promoted the development of liver basophilic lesions which were enzyme-negative” and the “weight gain on long-term treatment” value [11] was “reducing weight gain without suppressing appetite”. For the same molecule, the “spontaneous breast cancer development” value ([11]; long-term treatment) was “markedly inhibits spontaneous breast cancer development”, the hypoglycemic effect [12] was “marked hypoglycemic effect” and the “capacity of TPA to stimulate 3H-thymidine incorporation” value [13] was “antagonizes”. For the same molecule, the “capacity of TPA to stimulate 3H-thymidine incorporation” value [14] was “antagonizes”, the survival [15] was “prolonged the survival” and the “LIVER WEIGHT” value ([16]; control 0.057 ± 0.006, DHEA p < 0.05, clofibrate p < 0.002 vs control) was 0.074 ± 0.005 gm/gm body weight. The “liver weight, in words” value ([16]; mice) was “increased liver weight; also recorded: hepatomegaly”, the “SPECIFIC ACTIVITY, TPA stimulated 3H-thymidine incorporation” value ([17]; topical 100 ug) was 52 ± 5.8 cpm/ug DNA and the “SPECIFIC ACTIVITY, TPA stimulated 3H-thymidine incorporation” value ([17]; topical 400 ug) was 22 ± 6.5 cpm/ug DNA. The “effect on TPA stimulation of 3H-thymidine incorporation” value ([17]; topical, in words (Table 5)) was “abolishes this stimulation”, the “inhibition of Epstein-Barr virus-induced transformation” value [18] was “inhibitors of Epstein-Barr virus-induced transformation of human lymphocytes” and the “Mean Uterine Weight ± S.D.” value ([19]; control 2.02 ± 0.28, p < .001) was 4.17 ± 0.48 mg/100 gm body weight. For the same molecule, the “Mean Uterine Weigh ± S.D.” value ([19]; Table 2a, control 1.95 ± 0.22, p < 0.001) was 3.93 ± 0.71.
